# Measurements from US9567586B2, “EpCAM aptamer for detection of cancer stem cells” (DEAKIN UNIVERSITY, priority 2012, dated 2017).
# Assays:
# [1] = test system: PLC/PRF/5 hepatocellular carcinoma cell line; test: Tumoursphere formation in 96-well, PLC/PRF/5; format: cell-based, human
# [2] = test system: HT29 spheres; test: FACS analysis of CSC markers in treated HT29 spheres; format: cell-based, human; conditions: HT29 spheres after treatment
# Source text: Salinomycin (Sal), known to target CSC^23, was used as a positive control to validate our assays.
# [3] = test system: MCF7/ADR tumour; test: Xenotransplantation-LDA of in vivo treated MCF7/ADR tumours; conditions: 1 nmole chimera, 5 mg/kg Dox, Day 50
# Procedure: An orthotopic breast cancer model was established by implanting 3×10^6 MCF7/ADR cells (mixed with Matrigel) per site in NOD-SCID mice. When tumours reached a volume of ˜200 mm^3, we started treatment via tail vein injection. The mice (n=5) were treated at Day 1, 3, 5, with i.v. (bolus) injection of 1 nmole of EpCAM aptamer-siRNA chimera; and Day 2, 4, 6, with i.v. (bolus) injection of 5 mg/kg doxorubicin. The animals were euthanized on Day 10 and tumours harvested and subjected to xenotransplantation and in vivo extreme limiting dilution analysis.
# [4] = test system: HT29 colon cancer cells; test: Tumoursphere formation in 96-well, HT29; format: cell-based, human; conditions: 5 days; for Number of wells with sphere: HT29, 3 μM Dox equivalent
# Procedure: Under non-adherent and serum-free conditions, only the cancer stem cells (CSCs) and progenitor cells survive and undergo self-renewal as well as proliferate to form tumour spheres. The inventor studied the ability of aptamer-Dox to target cancer stem cells by plating various cell doses of single-cell suspension of HT29 colon cancer cells in ultra-low attachment 96-wells in the presence of 3 μM of free Dox, 3 μM equivalent Dox conjugated with aptamer, 3 μM Dox-negative control aptamer or vehicle control for 5 days. Tumour spheres (with a size >50 μm) were enumerated.
# [5] = test system: HT29 cells; test: Tumour formation ex vivo: in vitro treated HT29 cells xenotransplanted; design: species or system NOD/SCID mice; conditions: cells treated 3 μM, 5 days, Day 50
# Source text: As sphere formation is a surrogate assay for in vivo tumourigenicity, the inventor examined whether the in vitro treated cells could generate tumours upon xenotransplantation. […] As shown in FIG. 12 and Table 4, free Dox-treated cells formed tumours in every mouse studied but no tumour was detected in mice cells (Table 4) at Day 50 after receiving aptamer-Dox-treated tumour implantation.
# [6] = test system: HT29 cell populations; test: Extreme limiting dilution/xenotransplantation assay (ELDA) of treated HT29 tumours; format: in vivo, NOD/SCID mice; conditions: 9 weeks after inoculation
# Source text: The inventor first studied whether the aptamer-Dox conjugate could efficiently target tumour in vivo via live animal imaging with an on-site IVIS Lumina II imaging station. […] The ability of aptamer-Dox to target CSC was further tested in vivo using the gold standard extreme limiting dilution/xenotransplantation assay (ELDA). To this end, the inventor injected 1×10^6 HT29 cells s.c. into NOD/SCID mice. When tumours reached a size of 3 mm, the mice were randomized and treated serially for 3 days at a daily dose of 5 mg/Kg of either free Dox, EpCAM aptamer-Dox or control aptamer-Dox via tail vein injection. Mice were sacrificed one week after the last treatment. […] The experiment as repeated and single cell suspensions prepared from the treated tumours (as in FIG. 14) and ELDA (Extreme limiting dilution analysis) performed to assess the effect on CSC frequency.
# [7] = test system: MCF-7/ADR tumours; test: CSC marker status in in vivo treated MCF-7/ADR tumours (flow cytometry); design: species or system mice; conditions: treated 3 times in a week; 1 nmol PEG-chimera, 5 mg/kg doxorubicin; n=8
# Procedure: A 20-kDa PEG was attached to the 5′-end of siRNA-aptamer-chimera in order to extend its systemic circulation time. […] Day 2 after the last (third) treatment, tumours were removed, its weight determined and the percentage of breast cancer stem cell marker (EpCAM^+/CD44^+/CD24^−) positive cells in the treatment groups and various control groups was studied via flow cytometray.
# MCF-7/ADR tumours ([…]) were treated 3 times in a week with 1 nmol PEG-chimera+5 mg/kg doxorubicin. Single cell suspension was prepared for flow cytometry (n=8). Remarks
# [8] = test system: MCF7/ADR cells; test: Tumourigenicity ex vivo: treated MCF7/ADR cells xenotransplanted, extreme limiting dilution; format: in vivo, NOD/SCID mice; conditions: 20 nM chimera, 300 nM Dox, Day 40
# Procedure: The inventor hypothesized that the CSC-targeted delivery of survivin siRNA would make CSC sensitive to Dox. Indeed, after treatment (without transfection reagent) with 20 nM chimera plus 300 nM Dox for 72 h, there was a ˜80% reduction in the number of mammospheres in both the first and second round of tumoursphere assays (not shown), indicating a significant portion of cancer stem cells had been eliminated. The inventor further confirmed the effect of the chimera plus Dox on cancer stem cells' tumourigenicity by xenotransplanting treated cells into the 4th inguinal mammary fat pads of NOD/SCID mice coupled with an extreme limiting dilution analysis to assess CSC frequency (at Day 40 alter implantation) (Table 6).
smiles,measurement,setting,value
"COc1cccc2c1C(=O)c1c(O)c3c(c(O)c1C2=O)C[C@@](O)(C(=O)CO)C[C@@H]3O[C@H]1C[C@H](N)[C@H](O)[C@H](C)O1 [Free Dox, doxorubicin]",Number of wells with sphere,[1]; 1 cell seeded/well,0/10
same,Number of wells with sphere,[1]; 10 cells seeded/well,10/10
same,Number of wells with sphere,[1]; 100 cells seeded/well,10/10
same,Number of wells with sphere,[1]; 200 cells seeded/well,10/10
same,EpCAM^high/CD44^high/CD24^high cells,[2],91%
same,No. of tumours/no. of mice,[3]; 0.5 × 10^6 cells injected,0/4
same,No. of tumours/no. of mice,[3]; 1 × 10^6 cells injected,1/4
same,No. of tumours/no. of mice,[3]; 3 × 10^6 cells injected,3/4
same,No. of tumours/no. of mice,[3]; 5 × 10^6 cells injected,4/4
same,effect on HT29 tumour sphere formation (in words),[4]; 3 μM Dox,no effect
same,Number of wells with sphere,[4]; 1 cell seeded/well,0/10
same,Number of wells with sphere,[4]; 10 cells seeded/well,10/10
same,Number of wells with sphere,[4]; 100 cells seeded/well,10/10
same,Number of wells with sphere,[4]; 200 cells seeded/well,10/10
same,No. tumour/No. mice,[5]; 1 × 10^5 cells injected,5/5
same,No. tumour/No. mice,[5]; 1 × 10^6 cells injected,5/5
same,No. tumour/No. mice,[6]; 1 × 10^4 cells injected,0/6
same,No. tumour/No. mice,[6]; 1 × 10^5 cells injected,6/6
same,No. tumour/No. mice,[6]; 1 × 10^6 cells injected,6/6
same,Percentage EpCAM+/CD44+/CD24−,[7],11.6
same,No. of tumours/no. of mice,[8]; 0.5 × 10^6 cells injected,0/5
same,No. of tumours/no. of mice,[8]; 1 × 10^6 cells injected,1/5
same,No. of tumours/no. of mice,[8]; 3 × 10^6 cells injected,3/5
same,No. of tumours/no. of mice,[8]; 5 × 10^6 cells injected,5/5
